Source: paper PMC6767355 (Journal of Medicinal Chemistry, 2019)
Where two headings read alike, the source gives them in different places.

Experiments:
CphA = molecular target: T1, CphA (Aeromonas hydrophila, UniProt P26918); settings: cited from earlier work
T1 construct: made in house

L1 [1] = molecular target: T2, L1 (Stenotrophomonas maltophilia, UniProt P52700); settings: cited from earlier work
T2 construct: made in house

NDM-1 = molecular target: T3, NDM-1 (Klebsiella pneumoniae, UniProt C7C422); format: biochemical; settings: pre-incubation 0-180 min; supports reversible inhibition
T3 construct: made in house

L1 [2] = molecular target: T2, L1; assay: β-lactamase inhibition, fluorogenic FC5 hydrolysis assay; format: biochemical
[3] = system: NDM-1-producing Escherichia coli clinical isolates; assay: Antimicrobial susceptibility testing, MIC by agar dilution; format: cell-based; settings: antibiotic alone; for MIC: Escherichia coli, strain S117, Ec, read-out: Cef/MEM MIC
Procedure: (§1) Minimal inhibitory concentration (MIC) values were determined by the agar dilution method and interpreted using published guidelines described by EUCAST/CLSI.[57] All reported MIC values are within ±1 log2 dilution of the reference MIC values.

[4] = system: NDM-1-producing Klebsiella pneumoniae clinical isolates; assay: as above; format: cell-based; settings: antibiotic alone; for MIC: Klebsiella pneumoniae, strain B64, Kp, read-out: Cef/MEM MIC
Procedure: as §1

[5] = system: six NDM-1-producing clinical isolates of Escherichia coli and Klebsiella pneumoniae; assay: Antimicrobial susceptibility testing, MIC, summary over six clinical isolates; format: cell-based; settings: read-out: MIC in the absence of VNRX-5133; all six NDM-1-producing isolates
Procedure: as §1

OXA-10 = molecular target: T4, OXA-10 (Pseudomonas aeruginosa, UniProt P14489); settings: cited from earlier work
T4 construct: made in house
T4 sequence (P14489 20-266, species assumed): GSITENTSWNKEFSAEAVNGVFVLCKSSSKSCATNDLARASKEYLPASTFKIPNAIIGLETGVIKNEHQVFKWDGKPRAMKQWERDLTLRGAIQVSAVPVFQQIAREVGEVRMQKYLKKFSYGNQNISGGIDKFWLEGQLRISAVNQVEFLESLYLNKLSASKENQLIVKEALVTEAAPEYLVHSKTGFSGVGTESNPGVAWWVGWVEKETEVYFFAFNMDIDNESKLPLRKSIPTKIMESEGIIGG

T2 sequence (P52700 34-290): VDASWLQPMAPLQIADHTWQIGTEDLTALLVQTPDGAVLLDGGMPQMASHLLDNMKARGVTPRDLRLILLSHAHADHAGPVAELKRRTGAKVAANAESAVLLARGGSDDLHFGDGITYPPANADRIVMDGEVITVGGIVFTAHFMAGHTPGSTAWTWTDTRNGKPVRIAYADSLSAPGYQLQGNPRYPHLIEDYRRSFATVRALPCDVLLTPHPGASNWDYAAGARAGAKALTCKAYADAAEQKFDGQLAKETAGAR
T3 sequence (C7C422 29-270, looked up, species assumed): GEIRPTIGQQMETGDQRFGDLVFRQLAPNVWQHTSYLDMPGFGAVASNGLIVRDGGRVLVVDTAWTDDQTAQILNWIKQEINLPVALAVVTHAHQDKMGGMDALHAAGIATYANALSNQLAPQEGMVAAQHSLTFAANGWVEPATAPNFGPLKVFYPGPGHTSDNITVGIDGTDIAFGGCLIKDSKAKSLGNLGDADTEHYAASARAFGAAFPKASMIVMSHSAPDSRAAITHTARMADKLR
T1 sequence (P26918 28-254): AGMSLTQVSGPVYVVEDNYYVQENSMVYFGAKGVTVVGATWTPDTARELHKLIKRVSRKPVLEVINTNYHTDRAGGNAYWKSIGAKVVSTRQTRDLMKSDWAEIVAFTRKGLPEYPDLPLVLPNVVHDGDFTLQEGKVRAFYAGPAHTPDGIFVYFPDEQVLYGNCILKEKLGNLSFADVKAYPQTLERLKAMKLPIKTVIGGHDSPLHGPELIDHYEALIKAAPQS

SMILES | MIC [3] | Cef/MEM MIC ([3]; strain 91N, Ec) | Cef/MEM MIC ([3]; strain IR57, Ec) | MIC [4] | Cef/MEM MIC ([4]; strain B68-1, Kp) | Cef/MEM MIC ([4]; strain IR43, Kp) | MIC [5] | further results
NCc1ccc(C(=O)N[C@H]2Cc3cccc(C(=O)O)c3OB2O)cc1 [CB2] | – | – | – | – | – | – | – | IC50 (CphA): > 100 µM; IC50 L1 (L1 [1]): not inhibited[41]
NCCN[C@H]1CC[C@H](CC(=O)N[C@H]2Cc3cccc(C(=O)O)c3OB2O)CC1 [VNRX-5133, (R)-3-(2-(trans-4-((2-Aminoethyl)amino)cyclohexyl)acetamido)-2-hydroxy-3,4-dihydro-2H-benzo[e][1,2]oxaborinine-8-carboxylic Acid] | – | – | – | – | – | – | – | effect of variation in pre-incubation time on IC50, NDM-1 (NDM-1): did not result in different IC50 values; inhibition of subclass B3 MBL L1 (in words) (L1 [2]): nor did it inhibit; IC50 (L1 [2]; B3 MBL, FC5): > 10 µM
C[C@@H](O)[C@H]1C(=O)N2C(C(=O)O)=C(S[C@@H]3CN[C@H](C(=O)N(C)C)C3)[C@H](C)[C@H]12 [MEM, meropenem] | > 64 µg/mL | >64 μg mL^–1 | >64 μg mL^–1 | > 64 µg/mL | >64 μg mL^–1 | >64 μg mL^–1 | > 64 µg/mL | –
CO/N=C(\C(=O)N[C@@H]1C(=O)N2C(C(=O)[O-])=C(C[N+]3(C)CCCC3)CS[C@H]12)c1csc(N)n1 [Cef, cefepime] | > 64 µg/mL | >64 μg mL^–1 | >64 μg mL^–1 | > 64 µg/mL | >64 μg mL^–1 | >64 μg mL^–1 | > 64 µg/mL | –
O=C(O)C[C@@H]1CC[C@H](NC(=O)Cc2cccs2)B(O)O1 [vaborbactam] | – | – | – | – | – | – | – | IC50 (OXA-10; 100 mM aqueous sodium bicarbonate, read-out: IC50 OXA-10 (b)): > 400 µM; inhibition of OXA-10 (in words) (OXA-10): not inhibited; IC50 (OXA-10; without sodium bicarbonate, read-out: IC50 OXA-10): > 400 µM
